According to article PMC5547389, “Structure-activity relationships and molecular docking studies of chromene and chromene based azo chromophores: A novel series of potent antimicrobial and anticancer agents” (EXCLI Journal, 2017):
In brackets after ≈: the same amount, converted by molar mass.

Assays:
[1] = test system: Bacillus subtilis (RCMB 010067); assay: Well diffusion assay (inhibition zone); assay type: cell-based; details: RCMB010067, 5 mg/mL in DMSO, Gm+ve, read-out: Inhibition Zone (IZ) diameter, B.S
Method: (§1) The microorganism inoculums were uniformly spread using sterile cotton swabs on a sterile Petri dish malt extract agar (for fungi) and nutrient agar (for bacteria). One hundred cubic millimeters of each sample was added to each well (10 mm-diameter holes were cut in the agar gel, 20 mm apart from one another). The systems were incubated for 24-48 h at 37 °C (for bacteria) and at 28 °C (for fungi). After incubation, the microorganism growth was observed. Inhibition zones of the bacterial and fungal growth were measured in millimeters. Tests were performed in triplicate (Cappuccino and Sherman, 1999[12]; Vanden Berghe and Vlientinck, 1991[62]).
(§2) All the newly synthesized compounds described in this report were screened for both antibacterial and antifungal activity via the reported agar diffusion well method (Vanden Berghe and Vlietinck, 1991[62]). The inhibition zones and minimum inhibitory concentrations (MIC) were determined by the serial dilution method (Cappuccino and Sherman, 1999[12]). The antimicrobial activity of the synthesized compounds was tested against a broad panel of microorganisms including two Gram-positive bacteria: Streptococcus pneumoniae (RCMB 010010) and Bacillus subtilis (RCMB 010067), two Gram-negative bacteria: Pseudomonas aeruginosa (RCMB 010043) and Escherichia coli (RCMB 010052), and four fungi: Aspergillus fumigatus (RCMB 02568), Syncephalastrum racemosum (RCMB 05922), Geotricum candidum (RCMB 05097), and Candida albicans (RCMB 05036). Ampicillin, ciprofloxacin, gentamicin and amphotericin B were used as positive control drugs (Atta-ur-Rahman and Thomsen, 2001[7]; Smania et al., 1999[57]). […] While in the case of Gm-ve bacteria, they had weak activity. In addition, certain strains of fungi were sensitive to tested compounds with an IZ range from 12-25 except Candida albicans.

[2] = test system: Pseudomonas aeruginosa (RCMB 010043); assay: Well diffusion assay (inhibition zone); assay type: cell-based; details: RCMB010043, 5 mg/mL in DMSO, Gm-ve, read-out: Inhibition Zone (IZ) diameter, P.A
Method: as §1, §2

[3] = test system: Escherichia coli (RCMB 010052); assay: Well diffusion assay (inhibition zone); assay type: cell-based; details: RCMB010052, 5 mg/mL in DMSO, Gm-ve, read-out: Inhibition Zone (IZ) diameter, E.C
Method: as §1, §2

[4] = test system: Streptococcus pneumoniae (RCMB 010010); assay: Well diffusion assay (inhibition zone); assay type: cell-based; details: RCMB010010, 5 mg/mL in DMSO, Gm+ve, read-out: Inhibition Zone (IZ) diameter, S.P
Method: as §1, §2

[5] = test system: Geotricum candidum (RCMB 05097); assay: Well diffusion assay (inhibition zone); assay type: cell-based; details: 5 mg/mL in DMSO; fungi; read-out: Inhibition Zone (IZ) diameter, G.C
Method: as §1, §2

[6] = test system: Aspergillus fumigatus (RCMB 02568); assay: Well diffusion assay (inhibition zone); assay type: cell-based; details: RCMB02568, 5 mg/mL in DMSO, fungi, read-out: Inhibition Zone (IZ) diameter, A.F
Method: as §1, §2

[7] = test system: Syncephalastrum racemosum (RCMB 05922); assay: Well diffusion assay (inhibition zone); assay type: cell-based; details: RCMB05922, 5 mg/mL in DMSO, fungi, read-out: Inhibition Zone (IZ) diameter, S.R
Method: as §1, §2

[8] = test system: Human colon carcinoma (HCT-116); assay: Cytotoxic screening; assay type: cell-based; details: Homo sapiens, HCT-116; read-out: IC50 HCT-116
Method: (§3) Human colon carcinoma (HCT-116), human hepatocellular carcinoma (HEPG-2), adenocarcinomic human alveolar basal epithelial cell (A-549), and human breast adenocarcinoma (MCF-7) cell lines were obtained from the American Type Culture Collection (ATCC, Rockville, MD). The cells were grown on RPMI-1640 medium supplemented with 10 % inactivated fetal calf serum and 50 µg/ml gentamycin. The cells were maintained at 37 °C in a humidified atmosphere with 5 % CO2 and were subcultured two to three times a week. Potential cytotoxicity of the compounds was evaluated on tumor cells using the method of Gangadevi and Muthumary (2007[21]) (Klancnik et al., 2010[36]). The cells were grown as monolayers in growth RPMI-1640. The monolayers of 104 cells adhered at the bottom of the wells in a 96-well microtiter plate incubated for 24 h at 37 °C in a humidified incubator with 5 % CO2. The monolayers were then washed with sterile phosphate buffered saline (0.01 M pH 7.2) and simultaneously the cells were treated with 100 µL from different dilutions of tested sample in fresh maintenance medium and incubated at 37 °C. A control of untreated cells was made in the absence of tested sample. Positive controls containing doxorubicin were also tested as a reference drug for comparison. Six wells were used for each concentration of the test sample. Every 24 hours an observation under the inverted microscope was made. The number of the surviving cells was determined by staining the cells with crystal violet (Mosmann, 1983[42]; Gangadevi and Muthumary, 2007[21]) followed by cell lysing using 33 % glacial acetic acid and reading the absorbance at 590 nm using microplate reader (SunRise, TECAN, Inc, USA) after well mixing. The absorbance values from untreated cells were considered as 100 % proliferation. The number of viable cells was determined using microplate reader as previously mentioned before and the percentage of […] was calculated as [1-(ODt/ODc)] x 100 % where ODt is the mean optical density of wells treated with the tested sample and ODc is the mean optical density of untreated cells. The relation between surviving cells and drug concentration was plotted to get the survival curve of each tumor cell line after treatment with the specified compound. The 50 % inhibitory concentration (IC50), the concentration required to cause toxic effects in 50 % of intact cells, was estimated from graphic plots.
(§4) The in vitro cytotoxic activity was performed by MTT assay (Mosmann, 1983[42]; Alley et al., 1988[6]) against three human carcinoma cell lines: Human colon carcinoma (HCT-116), human breast adenocarcinoma (MCF-7), and human hepatocellular carcinoma (HEPG-2).

[9] = test system: human hepatocellular carcinoma (HEPG-2); assay: Cytotoxic screening; assay type: cell-based; details: HepG2, read-out: IC50 HepG-2
Method: as §3, §4

[10] = test system: human breast adenocarcinoma (MCF-7); assay: Cytotoxic screening; assay type: cell-based; details: Homo sapiens, MCF7; read-out: IC50 MCF-7
Method: as §3, §4

[11] = test system: Bacillus subtilis (RCMB 010067); assay: MIC by serial dilution method; assay type: cell-based; details: RCMB010067, Gm+ve, read-out: Minimum inhibitory concentration, MIC, B.S
Method: as §2

[12] = test system: Pseudomonas aeruginosa (RCMB 010043); assay: MIC by serial dilution method; assay type: cell-based; details: RCMB010043, Gm-ve, read-out: Minimum inhibitory concentration, MIC, P.A
Method: as §2

[13] = test system: Escherichia coli (RCMB 010052); assay: MIC by serial dilution method; assay type: cell-based; details: RCMB010052, Gm-ve, read-out: Minimum inhibitory concentration, MIC, E.C
Method: as §2

[14] = test system: Streptococcus pneumoniae (RCMB 010010); assay: MIC by serial dilution method; assay type: cell-based; details: RCMB010010, Gm+ve, read-out: Minimum inhibitory concentration, MIC, S.P
Method: as §2

[15] = test system: Geotricum candidum (RCMB 05097); assay: MIC by serial dilution method; assay type: cell-based; details: fungi; read-out: Minimum inhibitory concentration, MIC, G.C
Method: as §2

[16] = test system: Aspergillus fumigatus (RCMB 02568); assay: MIC by serial dilution method; assay type: cell-based; details: RCMB02568, fungi, read-out: Minimum inhibitory concentration, MIC, A.F
Method: as §2

[17] = test system: Syncephalastrum racemosum (RCMB 05922); assay: MIC by serial dilution method; assay type: cell-based; details: RCMB05922, fungi, read-out: Minimum inhibitory concentration, MIC, S.R
Method: as §2

Row | SMILES | zone of inhibition at 5000 µg/mL [1] [mm] | zone of inhibition at 5000 µg/mL [2] [mm] | zone of inhibition at 5000 µg/mL [3] [mm] | zone of inhibition at 5000 µg/mL [4] [mm] | zone of inhibition at 5000 µg/mL [5] [mm] | zone of inhibition at 5000 µg/mL [6] [mm] | zone of inhibition at 5000 µg/mL [7] [mm] | IC50 [8] [µg/mL] | IC50 [9] [µg/mL] | IC50 [10] [µg/mL] | MIC [11] [µg/mL] | MIC [12] [µg/mL] | MIC [13] [µg/mL] | MIC [14] [µg/mL] | MIC [15] [µg/mL] | MIC [16] [µg/mL] | MIC [17] [µg/mL] | melting point [°C]
1 | N#CC1=C(N)Oc2cc(O)c(N=Nc3ccc(C(=O)O)cc3)cc2C1c1ccccc1F (stereo not drawn) [13e, 4-[2-Amino-3-cyano-4-(2-fluoro-phenyl)-7-hydroxy-4H-chromen-6-ylazo]-benzoic acid] | 25.2 | 19.3 | 19.3 | 23.6 | 21.8 | 21.3 | 19.3 | 46.7 (≈ 109 µM) | 20.5 (≈ 47.6 µM) | 27.9 (≈ 64.8 µM) | 0.06 (≈ 0.139 µM) | 3.9 (≈ 9.06 µM) | 3.9 (≈ 9.06 µM) | 0.12 (≈ 0.279 µM) | 0.49 (≈ 1.14 µM) | 0.98 (≈ 2.28 µM) | 3.9 (≈ 9.06 µM) | 243
2 | CC1(C)S[C@@H]2[C@H](NC(=O)[C@H](N)c3ccccc3)C(=O)N2[C@H]1C(=O)O [Ampicillin, reference compound] | 32.4 | – | – | 23.8 | – | – | – | – | – | – | 0.007 (≈ 0.02 µM) | – | – | 0.24 (≈ 0.687 µM) | – | – | – | –
3 | CNC(C)C1CCC(N)C(OC2C(N)CC(N)C(OC3OCC(C)(O)C(NC)C3O)C2O)O1 (stereo not drawn) [Gentamicin, reference compound] | – | 17.3 | 19.9 | – | – | – | – | – | – | – | – | 31.2 (≈ 65.4 µM) | 3.9 (≈ 8.17 µM) | – | – | – | – | –
4 | COc1ccc(C2C(C#N)=C(N)Oc3c(N)cc4ccccc4c32)cc1 (stereo not drawn) [4d, 3,5-diamino-1-(4-methoxy-phenyl)-1H-benzo[f]chromene-2-carbonitrile] | 29.8 | 12.3 | 17.6 | 19.5 | 25.8 | 22.3 | 16.5 | 4.79 (≈ 13.9 µM) | 2.64 (≈ 7.69 µM) | 4.68 (≈ 13.6 µM) | 0.007 (≈ 0.0204 µM) | 125 (≈ 364 µM) | 15.6 (≈ 45.5 µM) | 7.81 (≈ 22.7 µM) | 0.06 (≈ 0.175 µM) | 0.98 (≈ 2.85 µM) | 62.5 (≈ 182 µM) | 183
5 | N#CC1=C(N)Oc2cc(O)c(N=Nc3ccc(O)cc3)cc2C1c1ccccc1F (stereo not drawn) [13j, 2-Amino-4-(2-fluoro-phenyl)-7-hydroxy-6-(4-hydroxy-phenylazo)-4H-chromene-3-carbonitrile] | 21.9 | 16.3 | 19.8 | 21 | 21.2 | 20.6 | 18.7 | 49.1 (≈ 122 µM) | 47.2 (≈ 117 µM) | 44 (≈ 109 µM) | 0.49 (≈ 1.22 µM) | 31.2 (≈ 77.7 µM) | 3.9 (≈ 9.69 µM) | 0.98 (≈ 2.44 µM) | 0.98 (≈ 2.44 µM) | 0.98 (≈ 2.44 µM) | 3.9 (≈ 9.69 µM) | 260
6 | O=[N+]([O-])c1ccc(N=Nc2ccc(O)cc2O)cc1 [12c, 4-(4-Nitro-phenylazo)-benzene-1,3-diol] | 18.6 | – | 13.5 | 17.2 | 17.9 | 16.4 | 14.2 | 30.2 (≈ 117 µM) | 21.2 (≈ 81.8 µM) | 24 (≈ 92.6 µM) | 7.81 (≈ 30.1 µM) | – | 125 (≈ 482 µM) | 31.2 (≈ 121 µM) | 15.6 (≈ 60.3 µM) | 62.5 (≈ 241 µM) | 125 (≈ 482 µM) | –
7 | O=C(O)c1cn(C2CC2)c2cc(N3CCNCC3)c(F)cc2c1=O [Ciprofloxacin, reference compound] | – | 22.3 | 25.3 | – | – | – | – | – | – | – | – | 0.99 (≈ 2.99 µM) | 0.49 (≈ 1.48 µM) | – | – | – | – | –
8 | N#CC1=C(N)Oc2cc(O)c(N=Nc3cccc(O)c3)cc2C1c1ccccc1F (stereo not drawn) [13k, 2-Amino-4-(2-fluoro-phenyl)-7-hydroxy-6-(3-hydroxy-phenylazo)-4H-chromene-3-carbonitrile] | 24.3 | 17.1 | 18.6 | 22.6 | 21.3 | 19.4 | 17.1 | 71.4 (≈ 177 µM) | 41.8 (≈ 104 µM) | 44.1 (≈ 110 µM) | 0.49 (≈ 1.22 µM) | 31.2 (≈ 77.7 µM) | 15.6 (≈ 38.8 µM) | 0.98 (≈ 2.44 µM) | 1.95 (≈ 4.85 µM) | 15.6 (≈ 38.8 µM) | 3.9 (≈ 9.69 µM) | 280
9 | CC(C)(C)c1ccc(C2C(C#N)=C(N)Oc3cc(O)c(N=Nc4ccc(O)cc4)cc32)cc1 (stereo not drawn) [13i, 2-Amino-4-(4-tert-butyl-phenyl)-7-hydroxy-6-(4-hydroxy-phenylazo)-4H-chromene-3-carbonitrile] | 22.4 | 16.2 | 17.2 | 21.3 | 20.3 | 17.3 | 19.2 | 75.7 (≈ 172 µM) | 31.6 (≈ 71.7 µM) | 47 (≈ 107 µM) | 0.12 (≈ 0.272 µM) | 15.6 (≈ 35.5 µM) | 3.9 (≈ 8.85 µM) | 0.24 (≈ 0.545 µM) | 0.98 (≈ 2.22 µM) | 3.9 (≈ 8.85 µM) | 15.6 (≈ 35.5 µM) | 255
